From patent US20170240556A1, “BIFLUORODIOXALANE-AMINO-BENZIMIDAZOLE KINASE INHIBITORS FOR THE TREATMENT OF CANCER, AUTOIMMUNEINFLAMMATION AND CNS DISORDERS” (4SC DISCOVERY GMBH, priority 2012, published 2017)

These compounds were tested against Casein kinase 1 delta (CSKN1D) (Homo sapiens, UniProt P48730) (assay: Casein kinase assay, CK1 delta). Conditions: recombinant CSKN1D 5 nM, ATP 10 μM.
Assay type: biochemical
Description: The recombinant protein Casein kinase 1 delta (CSKN1D) was added to the substrate solution in a concentration of 5 nM and gently mixed. Dilution series in of compounds of the present invention in DMSO were added to the reaction mixture, followed after 20 min by addition of a mixture of ATP and ^33P-ATP (specific activity 0.01 μCi/μl final) to a final concentration of 10 μM. Reactions were carried out at 25° C. for 120 min, followed by spotting the reactions onto P81 ion exchange filter paper. Unbound phosphate was removed by washing of the filters in 0.75% phosphoric acid. […] IC50 values and curve fits were obtained using the program Prism® (Graph Pad Software).

Sequence of Casein kinase 1 delta (CSKN1D) (P48730 whole entry): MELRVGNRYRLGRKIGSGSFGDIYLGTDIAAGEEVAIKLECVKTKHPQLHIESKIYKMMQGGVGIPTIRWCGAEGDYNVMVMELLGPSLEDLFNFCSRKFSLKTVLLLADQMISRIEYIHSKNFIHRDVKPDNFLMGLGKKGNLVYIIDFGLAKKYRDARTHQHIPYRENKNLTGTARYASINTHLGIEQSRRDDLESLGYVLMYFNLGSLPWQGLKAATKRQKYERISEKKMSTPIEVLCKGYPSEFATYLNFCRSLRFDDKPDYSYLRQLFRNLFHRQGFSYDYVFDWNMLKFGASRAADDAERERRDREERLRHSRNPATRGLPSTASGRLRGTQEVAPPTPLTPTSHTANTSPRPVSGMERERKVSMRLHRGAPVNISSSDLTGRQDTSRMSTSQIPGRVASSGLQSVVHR

SMILES	IC50
O=C(Nc1nc2cc3c(cc2[nH]1)OC(F)(F)O3)c1cncc(-c2ccco2)c1 [Compound 4B, N-(2,2-difluoro-5H-[1,3]dioxolo[4′,5′:4,5]benzo[1,2-d]imidazol-6-yl)-5-(furan-2-yl)nicotinamide]	< 0.2 µM
O=C(Nc1nc(C(=O)Nc2nc3cc4c(cc3[nH]2)OC(F)(F)O4)ns1)c1ccsc1 [Compound 10B, N-(2,2-difluoro-5H-[1,3]dioxolo[4′,5′:4,5]benzo[1,2-d]imidazol-6-yl)-5-(thiophene-3-carboxamido)-1,2,4-thiadiazole-3-carboxamide]	< 0.2 µM
Cc1onc(-c2ccccc2)c1C(=O)Nc1nc2cc3c(cc2[nH]1)OC(F)(F)O3 [Compound 50, N-(2,2-difluoro-5H-[1,3]dioxolo[4′,5′:4,5]benzo[1,2-d]imidazol-6-yl)-5-methyl-3-phenylisoxazole-4-carboxamide]	> 1 µM
O=C(Nc1nc2cc3c(cc2[nH]1)OC(F)(F)O3)c1ccc([N+](=O)[O-])cc1 [Compound 58, N-(2,2-difluoro-5H-[1,3]dioxolo[4′,5′:4,5]benzo[1,2-d]imidazol-6-yl)-4-nitrobenzamide]	0.2 to 1 µM
O=C(Nc1nc2cc3c(cc2[nH]1)OC(F)(F)O3)c1ccc2ccccc2n1 [Compound 59, N-(2,2-difluoro-5H-[1,3]dioxolo[4′,5′:4,5]benzo[1,2-d]imidazol-6-yl)quinoline-2-carboxamide]	> 1 µM
Nc1ccc(C(=O)Nc2nc3cc4c(cc3[nH]2)OC(F)(F)O4)cc1 [Compound 60, 4-amino-N-(2,2-difluoro-5H-[1,3]dioxolo[4′,5′:4,5]benzo[1,2-d]imidazol-6-yl)benzamide]	< 0.2 µM
NS(=O)(=O)c1ccc(C(=O)Nc2nc3cc4c(cc3[nH]2)OC(F)(F)O4)cc1 [Compound 62, N-(2,2-difluoro-5H-[1,3]dioxolo[4′,5′:4,5]benzo[1,2-d]imidazol-6-yl)-4-sulfamoylbenzamide]	< 0.2 µM
O=C(Nc1nc2cc3c(cc2[nH]1)OC(F)(F)O3)c1ccc([N+](=O)[O-])s1 [Compound 63, N-(2,2-difluoro-5H-[1,3]dioxolo[4′,5′:4,5]benzo[1,2-d]imidazol-6-yl)-5-nitrothiophene-2-carboxamide]	0.2 to 1 µM
O=C(Nc1nc2cc3c(cc2[nH]1)OC(F)(F)O3)c1sccc1Cl [Compound 64, 3-chloro-N-(2,2-difluoro-5H-[1,3]dioxolo[4′,5′:4,5]benzo[1,2-d]imidazol-6-yl)thiophene-2-carboxamide]	> 1 µM
O=C(Nc1nc2cc3c(cc2[nH]1)OC(F)(F)O3)c1cccc([N+](=O)[O-])c1 [Compound 65, N-(2,2-difluoro-5H-[1,3]dioxolo[4′,5′:4,5]benzo[1,2-d]imidazol-6-yl)-3-nitrobenzamide]	< 0.2 µM
O=C(Nc1nc2cc3c(cc2[nH]1)OC(F)(F)O3)c1cccc(C(F)(F)F)c1 [Compound 66, N-(2,2-difluoro-5H-[1,3]dioxolo[4′,5′:4,5]benzo[1,2-d]imidazol-6-yl)-3-(trifluoromethyl)benzamide]	< 0.2 µM
O=C(Nc1nc2cc3c(cc2[nH]1)OC(F)(F)O3)c1ccccn1 [Compound 67, N-(2,2-difluoro-5H-[1,3]dioxolo[4′,5′:4,5]benzo[1,2-d]imidazol-6-yl)picolinamide]	> 1 µM
O=C(Nc1nc2cc3c(cc2[nH]1)OC(F)(F)O3)c1cccc(F)c1 [Compound 70, N-(2,2-difluoro-5H-[1,3]dioxolo[4′,5′:4,5]benzo[1,2-d]imidazol-6-yl)-3-fluorobenzamide]	< 0.2 µM
O=C(Nc1nc2cc3c(cc2[nH]1)OC(F)(F)O3)c1cnco1 [Compound 71, N-(2,2-difluoro-5H-[1,3]dioxolo[4′,5′:4,5]benzo[1,2-d]imidazol-6-yl)oxazole-5-carboxamide]	0.2 to 1 µM
O=C(Nc1nc2cc3c(cc2[nH]1)OC(F)(F)O3)c1ccno1 [Compound 72, N-(2,2-difluoro-5H-[1,3]dioxolo[4′,5′:4,5]benzo[1,2-d]imidazol-6-yl)isoxazole-5-carboxamide]	0.2 to 1 µM
O=C(Nc1nc2cc3c(cc2[nH]1)OC(F)(F)O3)c1cc[nH]n1 [Compound 73, N-(2,2-difluoro-5H-[1,3]dioxolo[4′,5′:4,5]benzo[1,2-d]imidazol-6-yl)-1H-pyrazole-3-carboxamide]	> 1 µM
CCN(CC)c1ccc(C(=O)Nc2nc3cc4c(cc3[nH]2)OC(F)(F)O4)cc1 [Compound 74, 4-(diethylamino)-N-(2,2-difluoro-5H-[1,3]dioxolo[4′,5′:4,5]benzo[1,2-d]imidazol-6-yl)benzamide]	0.2 to 1 µM
CN(C)c1ccc(C(=O)Nc2nc3cc4c(cc3[nH]2)OC(F)(F)O4)cc1 [Compound 75, N-(2,2-difluoro-5H-[1,3]dioxolo[4′,5′:4,5]benzo[1,2-d]imidazol-6-yl)-4-(dimethylamino)benzamide]	< 0.2 µM
O=C(Nc1nc2cc3c(cc2[nH]1)OC(F)(F)O3)c1ccc(NCc2ccccc2)cc1 [Compound 76, 4-(benzylamino)-N-(2,2-difluoro-5H-[1,3]dioxolo[4′,5′:4,5]benzo[1,2-d]imidazol-6-yl)benzamide]	< 0.2 µM
CCNc1ccc(C(=O)Nc2nc3cc4c(cc3[nH]2)OC(F)(F)O4)cc1 [Compound 77, N-(2,2-difluoro-5H-[1,3]dioxolo[4′,5′:4,5]benzo[1,2-d]imidazol-6-yl)-4-(ethylamino)benzamide]	< 0.2 µM
O=C(Nc1nc2cc3c(cc2[nH]1)OC(F)(F)O3)c1cccnc1 [Compound 78, N-(2,2-difluoro-5H-[1,3]dioxolo[4′,5′:4,5]benzo[1,2-d]imidazol-6-yl)nicotinamide]	< 0.2 µM
O=C(Nc1nc2cc3c(cc2[nH]1)OC(F)(F)O3)C1CCCCC1 [Compound 80, N-(2,2-difluoro-5H-[1,3]dioxolo[4′,5′:4,5]benzo[1,2-d]imidazol-6-yl)cyclohexanecarboxamide]	< 0.2 µM
O=C(Nc1nc2cc3c(cc2[nH]1)OC(F)(F)O3)c1csc(-c2ccsc2)n1 [Compound 81, N-(2,2-difluoro-5H-[1,3]dioxolo[4′,5′:4,5]benzo[1,2-d]imidazol-6-yl)-2-(thiophen-3-yl)thiazole-4-carboxamide]	< 0.2 µM
O=C(Nc1nc2cc3c(cc2[nH]1)OC(F)(F)O3)c1csc(-c2ccc3c(c2)OCCO3)n1 [Compound 82, N-(2,2-difluoro-5H-[1,3]dioxolo[4′,5′:4,5]benzo[1,2-d]imidazol-6-yl)-2-(2,3-dihydrobenzo[b][1,4]dioxin-6-yl)thiazole-4-carboxamide]	< 0.2 µM
N#Cc1ccc(C(=O)Nc2nc3cc4c(cc3[nH]2)OC(F)(F)O4)c(F)c1 [Compound 93, 4-cyano-N-(2,2-difluoro-5H-[1,3]dioxolo[4′,5′:4,5]benzo[1,2-d]imidazol-6-yl)-2-fluorobenzamide]	> 1 µM
NC(=O)c1ccc(C(=O)Nc2nc3cc4c(cc3[nH]2)OC(F)(F)O4)c(F)c1 [Compound 94, N^1-(2,2-difluoro-5H-[1,3]dioxolo[4′,5′:4,5]benzo[1,2-d]imidazol-6-yl)-2-fluoroterephthalamide]	< 0.2 µM
NS(=O)(=O)c1cccc(C(=O)Nc2nc3cc4c(cc3[nH]2)OC(F)(F)O4)c1 [Compound 100, N-(2,2-difluoro-5H-[1,3]dioxolo[4′,5′:4,5]benzo[1,2-d]imidazol-6-yl)-3-sulfamoylbenzamide]	< 0.2 µM
NS(=O)(=O)c1c[nH]c(C(=O)Nc2nc3cc4c(cc3[nH]2)OC(F)(F)O4)c1 [Compound 101, N-(2,2-difluoro-5H-[1,3]dioxolo[4′,5′:4,5]benzo[1,2-d]imidazol-6-yl)-4-sulfamoyl-1H-pyrrole-2-carboxamide]	< 0.2 µM

Next, values leading:

IC50	SMILES
< 0.2 µM	O=C(Nc1nc2cc3c(cc2[nH]1)OC(F)(F)O3)c1csc(-c2cccc(F)c2)n1 [Compound 12B, N-(2,2-difluoro-5H-[1,3]dioxolo[4′,5′:4,5]benzo[1,2-d]imidazol-6-yl)-2-(3-fluorophenyl)thiazole-4-carboxamide]
< 0.2 µM	Cn1cc(C(=O)Nc2nc3cc4c(cc3[nH]2)OC(F)(F)O4)cn1 [Compound 13B, N-(2,2-difluoro-5H-[1,3]dioxolo[4′,5′:4,5]benzo[1,2-d]imidazol-6-yl)-1-methyl-1H-pyrazole-4-carboxamide]
< 0.2 µM	O=C(Nc1nc2cc3c(cc2[nH]1)OC(F)(F)O3)c1ccnc(N2CCSCC2)c1 [Compound 14B, N-(2,2-difluoro-5H-[1,3]dioxolo[4′,5′:4,5]benzo[1,2-d]imidazol-6-yl)-2-thiomorpholinoisonicotinamide]
0.2 to 1 µM	O=C(Nc1nc2cc3c(cc2[nH]1)OC(F)(F)O3)c1csc(-c2cccc(OC(F)(F)F)c2)n1 [Compound 19B]
0.2 to 1 µM	O=C(Nc1nc2cc3c(cc2[nH]1)OC(F)(F)O3)c1ccc(-c2ccccc2)cc1 [Compound 21B]
< 0.2 µM	O=C(Nc1nc2cc3c(cc2[nH]1)OC(F)(F)O3)c1ccc(-n2cnnn2)cc1 [Compound 22B, N-(2,2-difluoro-5H-[1,3]dioxolo[4′,5′:4,5]benzo[1,2-d]imidazol-6-yl)-4-(1H-tetrazol-1-yl)benzamide]
< 0.2 µM	O=C(Nc1nc2cc3c(cc2[nH]1)OC(F)(F)O3)c1cncc(-c2cccs2)c1 [Compound 23B, N-(2,2-difluoro-5H-[1,3]dioxolo[4′,5′:4,5]benzo[1,2-d]imidazol-6-yl)-5-(thiophen-2-yl)nicotinamide]
0.2 to 1 µM	COc1cccc(C(=O)Nc2nc3cc4c(cc3[nH]2)OC(F)(F)O4)n1 [Compound 24B]
< 0.2 µM	O=C(Nc1nc2cc3c(cc2[nH]1)OC(F)(F)O3)c1cncc(N2CCOCC2)c1 [Compound 25B, N-(2,2-difluoro-5H-[1,3]dioxolo[4′,5′:4,5]benzo[1,2-d]imidazol-6-yl)-5-morpholinonicotinamide]
> 1 µM	COc1ccnc(C(=O)Nc2nc3cc4c(cc3[nH]2)OC(F)(F)O4)c1 [Compound 26B]
